In patent publication US20240285644A1, “ASSESSING AND TREATING PROSTATE CANCER” (Mayo Foundation for Medical Education and Research, priority 2021, published 2024):
“Also recorded” adds a separate entry of the source.

What was measured:
[1] = tested on: LNCaP cells; experiment: Quantitative colony forming assay, cell survival of antiandrogen-sensitive LNCaP cells; format: cell-based; conditions: for cell survival of LNCaP cells: increasing concentrations of recombinant human NRG-1, vehicle versus enzalutamide (3 μM)
Description: It was next examined whether NRG-1 polypeptides differentially affect antiandrogen-sensitive and resistant prostate cancer cells. Antiandrogen-sensitive LNCaP prostate cancer cells express androgen receptor, whereas antiandrogen-resistant Du145 and PC3 cells express very limited androgen receptor (FIG. 3A).
The paradoxical toxic and salutary effects of NRG-1 polypeptides on antiandrogen-sensitive versus antiandrogen-resistant cells mirrors the outcomes in CSPC and CRPC patients, respectively.
LNCaP cells were then transfected with control shRNA versus shRNA targeting HER3 (FIG. 8A). Knockdown of HER3 rescued LNCaP cells from NRG-1- and enzalutamide-induced cell death (FIG. 7D and FIG. 8B). Relatedly, knockdown of HER2—but not HER4—reduces or eliminates Du145 cell benefit from NRG-1 polypeptide treatment (FIG. 8C-8D). To further confirm that HER2/HER3 heterodimerization can mediate a pro-survival response to NRG-1 polypeptides in CRPC, LNCaP cells were treated with lapatinib that induces HER2/HER3 heterodimerization.

[2] = tested on: NRG-1; experiment: Blood levels of NRG-1 in patients with cancer before and during PARP inhibitor treatment; format: in vivo, human; conditions: two patients with cancer (001 niraparib, 002 olaparib), Day 0 versus Days 7, 14
Description: Blood levels of NRG-1 of five patients with cancer were measured prior to and during treatment with PARP inhibitors.

## CNC(=O)c1ccc(N2C(=S)N(c3ccc(C#N)c(C(F)(F)F)c3)C(=O)C2(C)C)cc1F [enzalutamide]
[1]
  cell survival of LNCaP cells: function in an additive manner
[1]; listed as Enz
  cell survival of LNCaP cells: induced death of LNCaP cells in an additive fashion

## CS(=O)(=O)CCNCc1ccc(-c2ccc3ncnc(Nc4ccc(OCc5cccc(F)c5)c(Cl)c4)c3c2)o1 [lapatinib]
[1]; pre-treatment with lapatinib, then NRG-1 and enzalutamide
  effect of pre-treatment on NRG-1- and antiandrogen-mediated death of LNCaP cells: rescues LNCaP cells from antiandrogen enzalutamide and NRG-1; also recorded: abolished NRG-1- and antiandrogen-mediated cell death

## NC(=O)c1cccc2cn(-c3ccc([C@@H]4CCCNC4)cc3)nc12 [niraparib]
[2]
  blood levels of NRG-1: reduced over the course of treatment

## O=C(c1cc(Cc2n[nH]c(=O)c3ccccc23)ccc1F)N1CCN(C(=O)C2CC2)CC1 [olaparib]
[2]
  blood levels of NRG-1: reduced over the course of treatment
[2]; listed as Olaparib
  blood levels of NRG-1: reduced
